Laboratory results as given in patent US4582827A, “Pesticidal diphenylaziridines” (priority 1983, dated 1986).

Experiments:
[1] = tested on: tobacco hornworm larvae (newly ecdysed fifth-instar); assay: Topical application to tobacco hornworm larvae; format: in vivo, Manduca sexta; details: 2000 μg/larvae (1600 ppm)
Procedure: The test compounds were dissolved either in acetone or hexane and applied to the integument of the test insect with a micro applicator. Newly ecdysed fifth-instar tobacco hornworm larvae weighing between 1-1.5 g were used and toxicity data were obtained in the same way as previously described.

[2] = tested on: tobacco hornworm (Manduca sexta) larvae; assay: Tobacco hornworm growth and developmental responses to feeding on diets containing the compounds; format: in vivo; details: for mean number of eggs: 4 day old females
Procedure: The compounds produced and described in Example 1 were then tested for pesticidal activity against the tobacco hornworm (Manduca sexta). The screening procedure for these tests began with the larval stage and continued through the pupal and adult stages and finally evaluated egg production. The studies thus permitted the evaluation of the effects of the compounds over several subsequent developmental stages in the total life cycle of the insect, giving estimates of acute toxicity (insecticidalor larvicidal activity) as well as prolonged or delayed effects on development (growth regulation) and reproduction (chemosterilization). The latter are of special importance in conjunction with the integrated pest management approach to insect control.
The test compounds were incorporated into the artificial diet of tobacco hornworm larvae and their subsequent growth and developmental responses were monitored using the following parameters: larval mortality including determination of LD50 values, rate of larval development and weight gain, percent pupation, pupal weight and degree of deformities, percent adult emergence and measures of reproductive capacity such as the number of developed ooctyes, fecundity and fertility. The protocol for the screening tests has been developed over a number of years by Dahlman et al., Comp. Biochem. Physiol. 51A, 33, (1975); Comp. Biochem. Physiol., 52A, 105 (1975); Ent. Exp. et Appl., 22, 123 (1977); Palumbo and D. L. Dahlman, J. Econ. Entomol. 71, 674 (1978); D. L. Dahlman, Ent. Exp. et Appl., 24, 327 (1978).
Each treatment used 15 newly ecdysed fifth-instar larvae. Death of larvae within a few hours to several days of initial exposure was considered to be acute toxicity. However, the compounds may reduce the maximum size attained by larvae and/or may retard growth so that larvae require additional time to attain their maximum size. Developmental parameters subsequent to the feeding stage also may be affected. […] Mortality may occur in the pupal stage or emerging adults may have wrinkled wings or other deformities. The number of eggs produced by treated females may be reduced and/or unfertile. Although acute toxicity is desirable in the control of any insect, the delayed effects which result in poor survival and reduced reproductive capacity are significant factors in the long-range program of pest management systems.
Continuous cultures of M. sexta are maintained according to the procedures of Yamamoto, J. Econ. Entomol., 62, p. 1427 (1969). Ingredients of the diet formulation include sugar, casein, wheat germ oil, cholesterol, salt mixture, yeast, vitamins, antioxidants and fungal inhibitors, such as ascorbic acid, sorbic acid, formaldehyde and methyl-p-benzoate. All are incorporated into a liquid agar base which, when poured into holding pans, solidifies to form an adequate substrate upon which the insect larvae feed. Nearly any test material can be uniformly incorporated into such a diet. Thus, exposure to experimental compounds can be evaluated during all or any part of the larval stage. In addition, chronic or long-term effects in subsequent life stages can also be monitored.
The results from these studies, in which the 1,2-diphenylaziridines of Example 1 were incorporated singly into the diet of M. sexta at a concentration of 5 mM are presented in the following Table I.

H. virescens = assay: Incorporation into H. virescens diet; format: in vivo, Heliothis virescens; details: as much as 20 mM in diet
Procedure: Compounds 1, 10, 11, 13 and 14 were incorporated into H. virescens diet in the same manner as M. Sexta. Diets containing as much as 20 mM of each compound had little effect on larval development time, pupal weight or time to adult emergence.

[3] = tested on: Salmonella typhimurium strains TA 98, TA 100, TA 1535, TA 1537, TA 1538, TA 1978; assay: Ames assay (spot test), revertant colonies; format: cell-based
Procedure: This means that aziridine compounds, 1, 10, or 11, will not cause mutations in DNA arising from potential changes in frame shift and/or base pairing. Compounds 1, 10 and 11 were tested for mutagenic properties using the following experimental procedure.
Potential mutagenic and carcinogenic properties of the compounds were evaluated with standard Ames assay procedures (Ames et al, "Mutation Res.", 31, p. 347, 1975). This assay used strains of Salmonella typhimurium selected for sensitivity and specificity in being reverted from a histidine requirement back to prototrophy by a wide variety of mutagens. Potential changes in frameshift were evaluated using strains TA 98, TA 1537 and TA 1538, while changes in base pairing were detected using strains TA 100 and TA 1535. In addition, strain TA 1978 was used, in combination with TA 1538, to evaluate whether the agent killed bacteria by damage to DNA that could be repaired by this strain. Initially, the compounds were screened using the spot test, in which 1000 μgm of material dissolved in 10 μl of DNSO was applied to the middle of the plate.
Dose-response tests were not performed because the results were negative. All the tests were carried out in the presence and absence of an S9 rat liver preparation and contained a positive control (2-acetylaminofluorene,AAF) and a negative control (DMSO).

[4] = 5 mM in diet, all tests began with 15 larvae

With `FC(F)(F)c1ccc(N2CC2c2ccccc2Cl)cc1` (centres unmarked) [Compound 14] the “topical effect” value [1] was “ineffective”, the “% Adult Emergence” value ([2]; 1 mM in diet) was 100% and the “% Adults” value ([2]; 1 mM in diet) was 93%. For the same compound, the “% Malformed Adults” value ([2]; 1 mM in diet) was 36%, the “% Pupation” value ([2]; 1 mM in diet) was 93% and the “Days to Max Wt” value ([2]; 1 mM in diet) was 5.8 ± .1 days. For the same compound, the “Max Larval Wt” value ([2]; 1 mM in diet) was 9.20 g, the “Mean No. of Eggs” value ([2]; 1 mM in diet) was 83 ± 13 and the “No. of female Adults” value ([2]; 1 mM in diet) was 9. The “Total No. of Adults” value ([2]; 1 mM in diet) was 14, the “% Adult Emergence” value ([2]; 2.5 mM in diet) was 8% and the “% Adults” value ([2]; 2.5 mM in diet) was 7%. The “% Malformed Adults” value ([2]; 2.5 mM in diet) was 100%, the “% Pupation” value ([2]; 2.5 mM in diet) was 93% and the “Days to Max Wt” value ([2]; 2.5 mM in diet) was 6.6 ± 0.2 days. The “Max Larval Wt” value ([2]; 2.5 mM in diet) was 8.03 g, the “Mean No. of Eggs” value ([2]; 2.5 mM in diet) was 0 and the “No. of female Adults” value ([2]; 2.5 mM in diet) was 1. For the same compound, the “Total No. of Adults” value ([2]; 2.5 mM in diet) was 1, the “malformed adults” value ([2]; 2.5 mM in diet) was “a large percentage” and the “maximum larval weight and mean number of eggs” value ([2]; 2.5 mM in diet) was “reduced maximum larval weight and the mean number of eggs”. For the same compound, the “larval death (words in table)” value ([2]; 5 mM in diet) was “ALL DEAD WITHIN 3 DAYS”, the “larval mortality” value ([2]; 5 mM in diet) was “all or nearly all larvae died” and the symptoms of larvae ([2]; 5 mM in diet) was “extreme agitation of larvae, oral and anal expulsion of fluids and ultimately, death”. The “time until all larvae dead” value ([2]; 5 mM in diet) was at least 48 h, the mortality at 2500 µM ([2]; Manduca sexta, po, 2.5 mM in diet, read-out: pupal mortality) was 85% and the “oral activity” value ([2]; diet, Example 2) was “good oral activity”. The “larval mortality (acute toxicity)” value ([2]; in 24-72 hours, summary of Tables I and II) was 100%, the “pupal mortality” value ([2]; summary of Tables I and II) was “caused pupal mortality” and the “time to 100% larval mortality” value ([2]; summary of Tables I and II) was 24 to 72 h. For the same compound, the “effect on larval development time, pupal weight or time to adult emergence” value (H. virescens) was “little effect”.
For `Clc1ccccc1C1CN1c1ccccc1` (centres unmarked) [Compound 5], the “% Adult Emergence” value ([2]; 5 mM in diet) was 40%, the “% Malformed Adults” value ([2]; 5 mM in diet) was 17% and the “% Pupation” value ([2]; 5 mM in diet) was 40%. The “Days to Max Wt” value ([2]; 5 mM in diet) was 7.3 ± 1.4 days, the “Max Larval Wt” value ([2]; 5 mM in diet) was 5.42 ± .42 g and the “Mean No. of Eggs” value ([2]; 5 mM in diet) was 14 ± 17. For the same compound, the “No. of female Adults” value ([2]; 5 mM in diet) was 3, the “feeding time required to attain reduced maximum weight” value ([2]; 5 mM in diet) was “extended the feeding time” and the “larval mortality” value ([2]; 5 mM in diet) was “significant larval mortality”. The “percent adult emergence” value ([2]; 5 mM in diet) was “significantly lower than controls”, the “percent pupation” value ([2]; 5 mM in diet) was “a reduction in percent pupation” and the “reduction in the maximum weight of hornworm larvae” value ([2]; 5 mM in diet) was 30-50%. The “mean number of eggs” value ([2]; 5 mM in diet) was “significantly reduced the mean number of eggs”, the “Total No. of Adults” value [2, 4] was 6 and the “effects on tobacco hornworm development” value ([2]; summary of Tables I and II) was “reduction in maximum larval weight, percent pupation, and mean number of eggs, and an increase in malformed adults”.
With `CC(=O)Nc1ccc2c(c1)Cc1ccccc1-2` [AAF, 2-acetylaminofluorene, reference compound] the “Mean number of revertant colonies per plate, TA 98 +S9” value ([3]; strain TA 98, +S9) was 284.7 colonies per plate, the “Mean number of revertant colonies per plate, TA 98 -S9” value ([3]; strain TA 98, -S9) was 32.7 colonies per plate and the “Mean number of revertant colonies per plate, TA 100 +S9” value ([3]; strain TA 100, +S9) was 78.0 colonies per plate. The “Mean number of revertant colonies per plate, TA 100 -S9” value ([3]; strain TA 100, -S9) was 25.3 colonies per plate, the “Mean number of revertant colonies per plate, TA 1535 +S9” value ([3]; strain TA 1535, +S9) was 19.7 colonies per plate and the “Mean number of revertant colonies per plate, TA 1535 -S9” value ([3]; strain TA 1535, -S9) was 15.7 colonies per plate. For the same compound, the “Mean number of revertant colonies per plate, TA 1537 +S9” value ([3]; strain TA 1537, +S9) was 14.7 colonies per plate, the “Mean number of revertant colonies per plate, TA 1537 -S9” value ([3]; strain TA 1537, -S9) was 7.7 colonies per plate and the “Mean number of revertant colonies per plate, TA 1538 +S9” value ([3]; strain TA 1538, +S9) was 313.7 colonies per plate. For the same compound, the “Mean number of revertant colonies per plate, TA 1538 -S9” value ([3]; strain TA 1538, -S9) was 14.7 colonies per plate, the “Mean number of revertant colonies per plate, TA 1978 +S9” value ([3]; strain TA 1978, +S9) was 358.3 colonies per plate and the “Mean number of revertant colonies per plate, TA 1978 -S9” value ([3]; strain TA 1978, -S9) was 196.3 colonies per plate.
With `Clc1cccc(C2CN2c2ccc(Br)cc2)c1` (centres unmarked) [Compound 8] the “% Adult Emergence” value ([2]; 5 mM in diet) was 53%, the “% Malformed Adults” value ([2]; 5 mM in diet) was 50% and the “% Pupation” value ([2]; 5 mM in diet) was 60%. The “Days to Max Wt” value ([2]; 5 mM in diet) was 7.8 ± .6 days, the “Max Larval Wt” value ([2]; 5 mM in diet) was 4.84 ± .19 g and the “Mean No. of Eggs” value ([2]; 5 mM in diet) was 1 ± 0. The “No. of female Adults” value ([2]; 5 mM in diet) was 4, the “feeding time required to attain reduced maximum weight” value ([2]; 5 mM in diet) was “extended the feeding time” and the “larval mortality” value ([2]; 5 mM in diet) was “significant larval mortality”. The “percent adult emergence” value ([2]; 5 mM in diet) was “significantly lower than controls”, the “percent pupation” value ([2]; 5 mM in diet) was “a reduction in percent pupation” and the “reduction in the maximum weight of hornworm larvae” value ([2]; 5 mM in diet) was 30-50%. For the same compound, the “wrinkled or crumpled wings of moths” value ([2]; 5 mM in diet) was “observed in significant numbers of moths”, the “mean number of eggs” value ([2]; 5 mM in diet) was “significantly reduced the mean number of eggs” and the “Total No. of Adults” value [2, 4] was 8. For the same compound, the “effects on tobacco hornworm development” value ([2]; summary of Tables I and II) was “reduction in maximum larval weight, percent pupation, and mean number of eggs, and an increase in malformed adults”.
In the case of `O=[N+]([O-])c1cccc(C2CN2c2ccccc2)c1` (centres unmarked) [Compound 4], the “% Adult Emergence” value ([2]; 5 mM in diet) is reported as 100%, the “% Malformed Adults” value ([2]; 5 mM in diet) is reported as 7% and the “% Pupation” value ([2]; 5 mM in diet) is reported as 100%. The “Days to Max Wt” value ([2]; 5 mM in diet) was 5.1 ± .1 days, the “Max Larval Wt” value ([2]; 5 mM in diet) was 9.01 ± .17 g and the “Mean No. of Eggs” value ([2]; 5 mM in diet) was 67 ± 16. For the same compound, the “No. of female Adults” value ([2]; 5 mM in diet) was 9, the “Total No. of Adults” value [2, 4] was 15 and the “effects on tobacco hornworm development” value ([2]; summary of Tables I and II) was “had no effect”.
